Consider 48 molecules from patent US8158621B2, “Methods of treating or preventing autoimmune diseases with 2,4-pyrimidinediamine compounds” (Rigel Pharmaceuticals, Inc., priority 2002, dated 2012).

Type in all cases: cell-based
For test [1], the system named is cultured human mast cells (CHMC). Description: CHMC low cell density IgE activation: tryptase assay. Summed up:
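Supernatant tryptase activity, assayed with substrate for 30 min at room temperature, served as the degranulation measure. Mast cells (1000-1500 per well depending on donor) sat 1 hr at 37° C in MT before a 30 min anti-IgE challenge at 37° C.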

Test [2] shares this test system. Kind of test: CHMC low cell density ionomycin activation: tryptase assay.
Test [3] concerns Human Jurkat T-cells (clone N). Description: Jurkat T-cell activation (anti-TCR, CD69 upregulation). Summed up:
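Readout is CD69 upregulation by flow cytometry (anti-CD69-APC, 20 min at 4 °C) after 20 h anti-TCR (C305, 500 ng/ml) stimulation at 37 °C.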

Setting [4] is: Low Density CHMC, anti-IgE activation, tryptase release, read-out: CHMC anti-IgE Tryptase IC50.
The mark [5] stands for this setting: Low Density CHMC, ionomycin activation, tryptase release, read-out: CHMC Ionomycin Tryptase IC50.
[6] abbreviates: Low Density, read-out: CHMC anti-IgE Tryptase.
[7] abbreviates: Low Density, read-out: CHMC Ionomycin Tryptase.
Where [8] appears, read: Homo sapiens, Mast cell, Low Density, read-out: CHMC anti-IgE Tryptase.
[9] abbreviates: Homo sapiens, Mast cell, Low Density, read-out: CHMC Ionomycin Tryptase.
The mark [10] stands for this setting: low cell density, read-out: CHMC anti-IgE Tryptase.
Setting [11] is: low cell density, read-out: CHMC Ionomycin Tryptase.

Like-named read-outs stand apart in the source and are kept apart here.

As for `COC(=O)C(Nc1nc(Nc2ccc3c(c2)OCCO3)ncc1C#N)c1ccccc1` (stereo not drawn) [Compound R925820], the IC50 in test [1] (setting [4]), in test [2] (setting [5]) and in test [3] was greater than 10 µM in each case.
With `CC(C)(C)C(=O)Nc1cccc(Nc2ncc(F)c(Nc3cccc(O)c3)n2)c1` [Compound R940275], the IC50 in test [1] (setting [6]) is 0.862 µM; in test [2] (setting [7]), greater than 10 µM; in test [3], 16.4 µM.
Regarding `Nc1cccc(Nc2nc(Nc3cccc(NCCO)c3)ncc2F)c1` [Compound R950180], the IC50 was 0.278 µM in test [1] (setting [6]), greater than 10 µM in test [2] (setting [7]) and 2.87 µM in test [3].
In the case of `Fc1cnc(Cl)nc1Nc1ccc2c(c1)CN(c1nc(Cl)ncc1F)CC2` [Compound R926910], the IC50 in test [1] (setting [8]) is greater than 10 µM; in test [2] (setting [9]) it was greater than 10 µM; in test [3] (Homo sapiens, Jurkat), greater than 10 µM.
`Cc1ccc(Nc2nc(Cl)ncc2F)cc1C(F)(F)F` [Compound R926920]: the IC50 is greater than 10 µM in test [1] (setting [8]); greater than 10 µM in test [2] (setting [9]); greater than 10 µM in test [3] (Homo sapiens, Jurkat).
As to `CNC(=O)c1cc2cc(Nc3ncc(F)c(Nc4ccc(C(C)(C)C)cc4)n3)ccc2o1` [Compound R926713], the IC50 in test [1] (Homo sapiens, Mast cell, Low Density CHMC, anti-IgE activation, tryptase release, read-out: CHMC anti-IgE Tryptase IC50) turned out to be 0.446 µM; in test [2] (Homo sapiens, Mast cell, Low Density CHMC, ionomycin activation, tryptase release, read-out: CHMC Ionomycin Tryptase IC50) it was 8.74 µM; in test [3] (Homo sapiens, Jurkat), 8.22 µM.
Take `Oc1cccc(Nc2nc(Nc3ccc4[nH]ccc4c3)ncc2F)c1` [Compound R926749]: the IC50 is 0.472 µM in test [1] (setting [4]), greater than 10 µM in test [2] (setting [5]) and 4.68 µM in test [3].
`Nc1cc(Nc2ncc(F)c(Nc3ccc(Nc4ccccc4)c(N)c3)n2)ccc1Nc1ccccc1` [Compound R950125]: the IC50 is 1.38 µM in test [1] (setting [6]), 6.3 µM in test [2] (setting [7]) and greater than 10 µM in test [3].
For `OCCOc1cccc(Nc2ncc(F)c(Nc3ccc4c(c3)OCCCO4)n2)c1` [Compound R935186], the IC50 in test [1] (setting [6]) is 0.211 µM; in test [2] (setting [7]), greater than 10 µM; in test [3], 1.09 µM.
As to `COc1cc(Nc2ncc(F)c(Nc3ccc4c(c3)NC(=O)C(C)(C)O4)n2)cc(C(F)(F)F)c1` [Compound R927065], the IC50 in test [1] (setting [10]) is 0.235 µM; in test [2] (setting [11]) it was greater than 10 µM.
In the case of `COc1ccc(Nc2ncc(F)c(Nc3ccc4cc[nH]c4c3)n2)cc1Cl` [Compound R927091], the IC50 in test [1] (setting [10]) was 0.27 µM; in test [2] (setting [11]), greater than 10 µM.
For the molecule `COc1cc(Nc2nc(Nc3ccc4cn(C)nc4c3)ncc2F)ccc1F` [Compound R935450], the IC50 in test [1] (setting [10]) was 0.494 µM; in test [2] (setting [11]), greater than 10 µM.
As to `COc1ccc(Nc2nc(Nc3ccc4cn(C)nc4c3)ncc2F)cc1Cl` [Compound R935446], the IC50 in test [1] (setting [10]) is 0.395 µM; in test [2] (setting [11]), greater than 10 µM.
As to `NC1CCCCC1Nc1ncc(F)c(Nc2ccc3c(c2)NC(=O)C(CCO)O3)n1` (stereo not drawn) [Compound R950443], the IC50 in test [1] (setting [10]) and in test [2] (setting [11]) was greater than 10 µM each time.
With `O=C(COc1cccc(Nc2ncc(F)c(NC3CC3)n2)c1)Nc1ccc(N2CCOCC2)cc1` [Compound R945365], the IC50 in test [1] (setting [10]) was 0.257 µM; in test [2] (setting [11]) it was greater than 10 µM.
For `NC1CCOc2ccc(Nc3nc(Nc4ccc5cn[nH]c5c4)ncc3F)cc21` (racemic) [Compound R950423] the same measures were 0.05 µM and greater than 10 µM.
For `Cc1cc(Nc2ncc(F)c(Nc3ccc4c(c3)C(=O)NC(=O)C4(C)C)n2)cc(Cl)c1O` [Compound R909320], the IC50 in test [1] (setting [10]) is 0.29 µM; in test [2] (setting [11]), greater than 10 µM.
Regarding `O=C(COc1cccc(Nc2ncc(F)c(NC3CC3)n2)c1)NC1CC1` [Compound R945363], the IC50 in test [1] (setting [10]) was 0.687 µM; in test [2] (setting [11]), greater than 10 µM.
Take `CC1(C)Oc2ccc(Nc3nc(Nc4ccc5cc[nH]c5c4)ncc3F)nc2NC1=O` [Compound R945444]: the IC50 in test [1] (setting [10]) is 0.043 µM; in test [2] (setting [11]), greater than 10 µM.
Take `CNC(=O)n1ccc2ccc(Nc3ncc(F)c(Nc4ccc(OC)c(Cl)c4)n3)cc21` [Compound R927094]: the IC50 in test [1] (setting [10]) and in test [2] (setting [11]) was greater than 10 µM in each case.
Regarding `CN(CCO)C(=O)C1Cc2cc(Nc3ncc(F)c(Nc4ccc(OC(F)(F)F)c(Cl)c4)n3)ccc2O1` (racemic) [Compound R926960], the IC50 is 0.399 µM in test [1] (setting [10]) and greater than 10 µM in test [2] (setting [11]).
`CNC(=O)COc1cccc(Nc2ncc(F)c(Nc3ccc4c(c3)[C@H](NC(=O)OCc3ccccc3)CCO4)n2)c1` [Compound R950418]: the figures for the IC50 in test [1] (setting [10]) and in test [2] (setting [11]) were 1.67 µM and 9.09 µM, respectively.
Take `COc1cc(Nc2nc(Nc3ccc4cnn(C)c4c3)ncc2F)ccc1F` [Compound R935449]: the IC50 stood at 0.372 µM in test [1] (setting [10]) and 7.8 µM in test [2] (setting [11]).
As for `CNC(=O)COc1cccc(Nc2ncc(F)c(Nc3ccc4c(c3)C(=O)NC(=O)C4(C)C)n2)c1` [Compound R909318], the IC50 in test [1] (setting [10]) is 1.02 µM; in test [2] (setting [11]) it was greater than 10 µM.
Take `COc1ccc(Nc2nc(Nc3cc(C)c(OC)c(Cl)c3)ncc2F)cc1Cl` [Compound R926972]: the IC50 was 5.29 µM in test [1] (setting [10]) and greater than 10 µM in test [2] (setting [11]).
In the case of `CC(C)(C)OC(=O)NC1CCOc2ccc(Nc3nc(Nc4ccc5cn[nH]c5c4)ncc3F)cc21` (racemic) [Compound R950422], the results for the IC50 in test [1] (setting [10]) and in test [2] (setting [11]) were 0.475 µM and 6.53 µM, respectively.
With `Fc1cnc(Nc2ccc(Cl)c(Cl)c2)nc1NC1CCC1` [Compound R945394], the figures for the IC50 in test [1] (setting [10]) and in test [2] (setting [11]) were 1.24 µM and 5.61 µM, respectively.
For `CCN(CC)CCCNc1ncc(F)c(Nc2cc(OC)cc(OC)c2)n1` [Compound R950469] the same measures were greater than 10 µM and greater than 10 µM.
For `O=C(COc1cccc(Nc2ncc(F)c(Nc3ccc(N4CCOCC4)cc3)n2)c1)NC1CC1` [Compound R945360], in that order: 1.37 µM and greater than 10 µM.
With `CNCC1Cc2cc(Nc3ncc(F)c(Nc4ccc(OC)c(Cl)c4)n3)ccc2O1` (racemic) [Compound R927045], the IC50 in test [1] (setting [10]) was 0.535 µM; in test [2] (setting [11]) it was greater than 10 µM.
With `O=C1COc2ccc(Nc3nc(Nc4cc(Cl)cc(Cl)c4)ncc3F)nc2N1` [Compound R945454], the IC50 is 20.6 µM in test [1] (setting [10]) and greater than 10 µM in test [2] (setting [11]).
For `CNC(=O)CCn1ncc2cc(Nc3ncc(F)c(Nc4ccc(OC)c(Cl)c4)n3)ccc21` [Compound R935462], the values for the IC50 in test [1] (setting [10]) and in test [2] (setting [11]) were 0.364 µM and greater than 10 µM, respectively.
`COc1cc(Nc2ncc(F)c(Nc3ccc4c(c3)C(=O)NC(=O)C4(C)C)n2)cc(OC)c1` [Compound R909323]: the IC50 in test [1] (setting [10]) and in test [2] (setting [11]) was greater than 10 µM throughout.
On to `COc1ccc(Nc2ncc(F)c(Nc3ccc4c(c3)OCCO4)n2)cc1Cl` [Compound R927084], for which the IC50 in test [1] (setting [10]) is 0.466 µM; in test [2] (setting [11]), greater than 10 µM.
As for `COc1cc(Nc2nc(Nc3ccc(CNC(=O)OC(C)(C)C)cc3)ncc2F)cc(OC)c1` [Compound R950456], the IC50 in test [1] (setting [10]) amounted to 3.78 µM; in test [2] (setting [11]), 4.4 µM.
In the case of `CNC(=O)COc1cccc(Nc2ncc(F)c(Nc3ccc4c(c3)[C@@H](N)CCO4)n2)c1` [Compound R950420], the IC50 was 0.114 µM in test [1] (setting [10]) and greater than 10 µM in test [2] (setting [11]).
In the case of `CCN(CC)CCCNc1ncc(F)c(Nc2ccc(Cl)c(Cl)c2)n1` [Compound R950470], the results for the IC50 in test [1] (setting [10]) and in test [2] (setting [11]) were 16.2 µM and greater than 10 µM, respectively.
As for `CNC(=O)COc1cccc(Nc2ncc(F)c(Nc3ccc(OCC(=O)NC)c(Cl)c3)n2)c1` [Compound R927043], the IC50 in test [1] (setting [10]) is 0.45 µM; in test [2] (setting [11]), greater than 10 µM.
For `CCN(CC)CCCNc1ncc(F)c(Nc2ccc3c(c2)NC(=O)[C@H](C)O3)n1` [Compound R950471], in that order: 50.5 µM and greater than 10 µM.
Consider `O=C(COc1cccc(Nc2ncc(F)c(Nc3ccc(N4CCOCC4)cc3)n2)c1)NC1CCC1` [Compound R945362], for which the IC50 in test [1] (setting [10]) was 1.57 µM; in test [2] (setting [11]) it was greater than 10 µM.
As for `CNC(=O)COc1cccc(Nc2ncc(F)c(Nc3cccc(NC(C)=O)n3)n2)c1` [Compound R927093], the IC50 was 0.303 µM in test [1] (setting [10]) and greater than 10 µM in test [2] (setting [11]).
As for `CNC(=O)CCn1cc2cc(Nc3ncc(F)c(Nc4ccc5c(c4)NC(=O)C(C)(C)O5)n3)ccc2n1` [Compound R935453], the figures for the IC50 in test [1] (setting [10]) and in test [2] (setting [11]) were 0.15 µM and greater than 10 µM, respectively.
Consider `Nc1cccc(Nc2nc(Nc3ccc(OC(F)(F)F)c(Cl)c3)ncc2F)n1` [Compound R927081], for which the IC50 in test [1] (setting [10]) was 2.27 µM; in test [2] (setting [11]) it was greater than 10 µM.
On to `Cc1cc(Nc2ncc(F)c(Nc3ccc4c(c3)OCCO4)n2)cc(C)c1Cl` [Compound R927117], for which the IC50 in test [1] (setting [10]) was 0.614 µM; in test [2] (setting [11]), greater than 10 µM.
Take `CNC(=O)COc1cccc(Nc2ncc(F)c(Nc3ccc(OC(C)C)nc3)n2)c1` [Compound R926962]: the values for the IC50 in test [1] (setting [10]) and in test [2] (setting [11]) were 0.205 µM and greater than 10 µM, respectively.
As to `CC(C)NC(=O)C1Cc2cc(Nc3ncc(F)c(Nc4ccc(OC(F)(F)F)c(Cl)c4)n3)ccc2O1` (stereo not drawn) [Compound R926961], the figures for the IC50 in test [1] (setting [10]) and in test [2] (setting [11]) were 1.2 µM and greater than 10 µM, respectively.
For the molecule `CC1(C)Oc2ccc(Nc3ncc(F)c(Nc4ccc5[nH]ncc5c4)n3)cc2NC1=O` [Compound R935438], the IC50 in test [1] (setting [10]) turned out to be 0.414 µM; in test [2] (setting [11]) it was 23 µM.
As to `O=C(NNc1nc(Nc2ccc3c(c2)OCCO3)ncc1F)c1ccc2c(c1)OCO2` [Compound R926406], the IC50 in test [1] (setting [4]) and in test [2] (setting [5]) was greater than 10 µM in each case.
